Laboratory results from patent US20240325544A1, “CATIONIC LIPID FOR COVALENT MODIFICATION OF PEPTIDES” (PharmalN Corporation, priority 2023, published 2024).
Bridge positions count the residues as written; N and C are the ends. Square brackets hold non-standard residues; d marks the D form. Ends that are not written are not given here. * marks the point of attachment. Palmitoyl = CCCCCCCCCCCCCCCC(=O)*; Dap = NC[C@H](N)C(=O)O; AEEA = NCCOCCOCC(=O)O

Key:
[1] = Clinically observable adverse effects of cationic alkyl moieties after subcutaneous bolus in rats (Table 1); type: in vivo, rat; conditions: male, Sprague-Dawley, rat, in vivo, sc, tested at 3.0, 5.0 or 10 μmol/kg, lethargy is considered maximum tolerated bolus dose, read-out: Lethargy* in n = 3
Procedure, shortened: (§1)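 Rats given subcutaneous bolus of cationic alkyl modifier in sterile water pH 4.5-5, starting 5.0 μmol/kg, raised to 10 μmol/kg if no swelling or lowered to 3.0 μmol/kg if swelling, 1-week wash-out. Monitored for lethargy, ataxia, swelling, discoloration closely for 4 h, then hourly.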

Sprague Dawley rats = test: as above; type: in vivo, rat; conditions: tested at 3.0, 5.0 or 10 μmol/kg
Procedure, shortened: as §1

MC38 colon cancer cells = test: Subcutaneous mouse model of colon cancer using MC38 cells (FIG. 12); type: in vivo, mice; conditions: combination with anti-tigit Ab 5 mg/kg IP twice a week, 2 cycles
Protocol: FIGS. 12A-12B. […] Error bars represent standard error of the mean. FIG. 12A) A diagram of the dose schedule for administration of immune checkpoint inhibitor (anti-tigit Ab) and SEQ ID NO: 31. FIG. 12 B) Tumor growth kinetics of 6-week-old male C57BL/6J mice (n=8-9 per group) that were subcutaneously inoculated with MC38 colon cancer cells (1,000,000 cells/mouse) in right flank. Starting from Day 4 post-inoculation, anti-tigit Ab was administered intraperitoneally at 5 mg/kg twice a week for 2 cycles; SEQ ID NO: 31 was administered subcutaneously at a bolus dose of 0.3 mg/kg (0.1 μmol/kg) once daily for 5 days (5 days on, 2 days off) for 3 cycles; or a combination of anti-tigit Ab (5 mg/kg IP twice a week; 2 cycles) and SEQ ID NO: 31 (0.3 mg/kg SC once a day for 5 days on and 2 days off; 3 cycles). The control group, which received only buffer, was dosed in the same manner as SEQ ID NO: 31 to establish the baseline tumor growth kinetics. […]
Animal care and treatment: Male C57BL/6J mice (6 weeks-old) were purchased from Kyudo (Saga, Japan) and maintained under a 12-hour light/12-hour dark cycle with free access to water and standard mouse diet (MF diet; Oriental Yeast Co., Ltd, Tokyo Japan). […] Tumor sizes were measured using calipers on Days 4, 7, 14, and Day 22 post-inoculation. […]

[2] = molecular target: T1, Recombinant human NPRB extracellular domain - human IgG1 Fc fusion (NPRB-Fc) (human, UniProt P20594 23-458); test: Fluorescence polarization competition: 150 nM SEQ ID NO: 31 against 5 nM CNP-F* on 50 nM human NPRB
T1 construct: extracellular domain; Used at 50 nM in the fluorescence polarization assay; R1-T433 counts on the mature protein; also called natriuretic peptide receptor B; not shown: Human IgG1 heavy chain, amino acids E216-G446 (IMGT.org, EU numbering), Accn; P01857.2
T1 sequence (looked up): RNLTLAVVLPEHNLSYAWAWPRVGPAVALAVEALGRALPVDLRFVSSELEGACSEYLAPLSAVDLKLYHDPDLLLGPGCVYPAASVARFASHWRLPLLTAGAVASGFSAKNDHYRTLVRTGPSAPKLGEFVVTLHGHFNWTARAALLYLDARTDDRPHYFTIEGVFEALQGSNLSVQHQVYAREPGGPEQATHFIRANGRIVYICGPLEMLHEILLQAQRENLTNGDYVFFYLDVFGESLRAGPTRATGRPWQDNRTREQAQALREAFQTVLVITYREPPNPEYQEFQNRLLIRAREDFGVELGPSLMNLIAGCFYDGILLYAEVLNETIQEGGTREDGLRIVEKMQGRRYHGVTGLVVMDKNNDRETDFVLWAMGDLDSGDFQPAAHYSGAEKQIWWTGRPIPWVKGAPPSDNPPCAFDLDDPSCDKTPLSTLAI
Protocol: (§2) In the presence of [SEQ ID.
(§3) Next, 1-L volume of SEQ ID. […] The plate was incubated at room temperature for 10 min. Fluorescence polarization was then measured on Flexstation 3 (excitation wavelength: 480 nm; emission wavelength: 525 nm and cutoff at 515 nm).

[3] = molecular target: T1, Recombinant human NPRB extracellular …; test: Fluorescence polarization, 5 nM CNP-F* with 50 nM human NPRB
Protocol: as §2, §3

[4] = molecular target: T2, Recombinant human NPRA extracellular domain - human IgG1 Fc fusion (NPRA-Fc) (human, UniProt P16066 33-473); test: Fluorescence polarization, 5 nM CNP-F* probe with recombinant human NPRA-Fc
T2 construct: extracellular domain; Expressed in Expi293 cells, Protein A purified; N1-L439 and C232 count on the mature NPRA, not on the precursor; also called Natriuretic Peptide Receptor A; not shown: Human IgG1 heavy chain, amino acids E216-G446 (IMGT.org, EU numbering), Accn; P01857.2
T2 sequence (looked up): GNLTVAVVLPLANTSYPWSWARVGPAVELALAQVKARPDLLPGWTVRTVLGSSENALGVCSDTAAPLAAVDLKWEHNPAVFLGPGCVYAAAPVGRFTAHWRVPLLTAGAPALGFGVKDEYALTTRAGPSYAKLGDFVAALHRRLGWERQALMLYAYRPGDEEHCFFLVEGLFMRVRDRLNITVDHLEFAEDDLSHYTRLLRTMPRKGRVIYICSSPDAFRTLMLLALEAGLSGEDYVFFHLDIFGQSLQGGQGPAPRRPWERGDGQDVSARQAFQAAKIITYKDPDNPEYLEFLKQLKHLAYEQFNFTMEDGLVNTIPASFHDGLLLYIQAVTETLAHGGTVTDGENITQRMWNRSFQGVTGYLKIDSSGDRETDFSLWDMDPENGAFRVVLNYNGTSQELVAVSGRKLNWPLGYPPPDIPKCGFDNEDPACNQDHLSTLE

For CCCCCCCCCCCCCCCC(=O)NCCOCCOCC(=O)NCCOCCOCC(=O)NCCOCCOCC(=O)N[C@H](CCCCN)C(=O)N[C@H](CCCCN)C(=O)O [SEQ ID NO: 3, CH3(CH2)14(C═O)-Aeea-Aeea-Aeea-kk], the MTD [1] was no less than 5 µmol/kg, the “Ataxia** in n = 3” value (Sprague Dawley rats; ataxia is bolus dose limiting toxicity) was no less than 5 µmol/kg and the “Swelling and/or Discoloration in n = 3” value (Sprague Dawley rats; dose at which sign was seen) was no less than 3 µmol/kg. For the same molecule, the “Anti-tumor effect vs anti-tigit Ab monotherapy” value (MC38 colon cancer cells) was “outperformed the anti-tumor effect of anti-tigit Ab as a monotherapy”.

B1: SEQ ID NO: 31, cationic alkyl modified CNP derivative CH3(CH2)14(C=O)-Aeea-Aeea-Aeea-Dap-Dap-GLSKGCFGLKLDRIGSQSGLGC (disulfide bond) (peptide)
peptide: Palmitoyl-[AEEA][AEEA][AEEA][Dap][Dap]GLSKGCFGLKLDRIGSQSGLGC
modifications: disulfide 11-27
notes: The entry holds non-natural residues (Aeea, Dap) before the 22 residues of the CNP part
B1: binds [2].

B2: CNP-F* probe (C-type natriuretic peptide bound to 5(6)-Carboxyfluorescein) (peptide)
peptide: {5(6)‑carboxyfluorescein}-GLSKGCFGLKLDRIGSMSGLGC
modifications: disulfide 6-22 (inferred)
notes: Made by solid phase synthesis; used at 5 nM in the fluorescence polarization assay; also called CNP probe; CNP based probe
B2: binds [3]; no binding [4].
